Results: US20220396593A1, “SYNTHESIS AND CHARACTERIZATION OF VANADIUM COMPLEXES” (priority 2021, published 2022)

How the values were obtained:
[1] = tested on: oncolytic RNA viruses including vesicular stomatitis virus (VSV) and Measles; conditions: cited from earlier work
[2] = Solubility of vanadium complex solid in water / PBS buffer
[3] = Stability of vanadium complexes in water and PBS buffer (NMR, pH over time); conditions: pH adjusted to 7.4 where needed

Compound | Effect on replication and spread of oncolytic RNA viruses [1] | Stability in solution and need for pH adjustment [3] | further results
Cc1occc(=O)c1[O-].Cc1occc(=O)c1[O-].[O]=[V+2] [bismaltolatoxovanadate (BMOV), bismaltolatoxovanadate] | improve the replication and spread of oncolytic RNA viruses |  | 
[O]=[V]([O-])([O-])[O-] [orthovanadate] | improve the replication and spread of oncolytic RNA viruses |  | 
O=S(=O)([O-])[O-].[O]=[V+2] [vanadyl sulfate] | improve the replication and spread of oncolytic RNA viruses |  | 
K3[(VO2)2(C6H6O7)(C6H5O7)]×3 H2O [CDOS150] |  | the solutions did require initial pH adjustment | pH up to which the solid dissolved ([2]; solid dissolved into water and phosphate buffered saline (PBS) buffer): ≤ 5
Na3[(V^IVO)2(C6H4O7)(C6H5O7)] [CDOS155] |  | limited at pH 7.4 but similar in water or PBS but required continuous pH adjustment | Solubility ([2]; in water): soluble in water; pH up to which the solid dissolved ([2]; solid mixed with PBS buffer): ≤ 5
